Measured values taken from article PMC8131363 (Scientific Reports, 2021).
Like-named read-outs stand apart in the source and are kept apart here.

Assays:
cCaSR [1] = target: T1, cCaSR (Felis catus, UniProt C7FF08)
T1 sequence (C7FF08 1-1081): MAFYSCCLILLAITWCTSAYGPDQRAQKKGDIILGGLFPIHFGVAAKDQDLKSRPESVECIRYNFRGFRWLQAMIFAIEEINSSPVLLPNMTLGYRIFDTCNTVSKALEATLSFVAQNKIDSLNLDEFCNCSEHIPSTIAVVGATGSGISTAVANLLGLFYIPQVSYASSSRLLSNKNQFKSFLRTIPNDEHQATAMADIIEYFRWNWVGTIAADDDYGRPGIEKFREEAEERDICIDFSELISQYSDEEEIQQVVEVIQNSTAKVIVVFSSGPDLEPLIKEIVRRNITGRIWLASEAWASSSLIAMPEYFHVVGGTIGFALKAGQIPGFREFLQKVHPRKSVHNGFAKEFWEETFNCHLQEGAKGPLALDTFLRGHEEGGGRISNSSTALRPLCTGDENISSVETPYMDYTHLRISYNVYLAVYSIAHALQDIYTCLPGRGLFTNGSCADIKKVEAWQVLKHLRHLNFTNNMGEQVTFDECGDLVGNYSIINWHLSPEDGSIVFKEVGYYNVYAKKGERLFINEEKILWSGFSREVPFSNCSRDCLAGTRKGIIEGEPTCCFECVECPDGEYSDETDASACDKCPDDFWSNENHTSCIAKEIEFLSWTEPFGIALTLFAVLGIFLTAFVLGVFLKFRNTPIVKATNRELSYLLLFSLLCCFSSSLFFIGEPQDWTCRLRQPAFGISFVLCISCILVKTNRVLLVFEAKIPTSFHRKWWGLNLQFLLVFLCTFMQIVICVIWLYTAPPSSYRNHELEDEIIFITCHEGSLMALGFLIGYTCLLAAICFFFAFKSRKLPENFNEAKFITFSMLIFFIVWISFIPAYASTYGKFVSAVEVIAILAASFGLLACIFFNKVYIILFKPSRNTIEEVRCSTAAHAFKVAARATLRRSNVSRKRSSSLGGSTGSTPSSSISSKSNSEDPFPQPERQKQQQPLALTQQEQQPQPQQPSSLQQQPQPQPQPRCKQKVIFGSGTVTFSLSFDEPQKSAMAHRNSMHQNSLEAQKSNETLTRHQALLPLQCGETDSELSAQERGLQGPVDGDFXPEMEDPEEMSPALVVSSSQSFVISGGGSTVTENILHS

[2] = GSH at 2.5 mM
cCaSR [3] = target: T1, cCaSR; experiment: cell-based
[4] = read-out: cCaSR activity, agonist assay, stable inducible cCaSR line, at least three wells
[5] = read-out: cCaSR stable EC50, stably expressed cCaSR, Fig. 6b, > 3 mM = maximal response not reached

EC50 (cCaSR [1]; [4]) | EC50 (cCaSR [1]; [5]) | pH of solution [2] | EC50 (cCaSR [3]; EC50 (M), agonist assay, stable inducible cCaSR line, > 0.01 M = maximal response not reached) | EC50 (cCaSR [3]; EC50 Ago (M), Supplementary Table I, agonist assay, > 0.01 M = maximal response not reached) | EC50 (cCaSR [3]; cCaSR activity, agonist assay, stable inducible cCaSR line, at least three wells) | EC50 (cCaSR [3]; cCaSR stable EC50(mM), stably expressed cCaSR, Fig. 6b, > 3 mM = maximal response not reached) | EC50 (cCaSR [1]; agonist assay, stable inducible cCaSR line, > 0.01 M = maximal response not reached) | EC50 (cCaSR [1]; read-out: EC50 Ago, Supplementary Table I, agonist assay, > 0.01 M = maximal response not reached) | SMILES
> 10000 µM | > 3000 µM | – | – | – | – | – | – | – | [Cl-].[Cl-].[Mg+2] [Mg^2+, MgCl2]
– | – | 3.48 | 0.00639 M | 0.0064 M | 0.001 to 0.01 M | > 0.003 M | – | – | N[C@@H](CCC(=O)N[C@@H](CS)C(=O)NCC(=O)O)C(=O)O [Glutathione]
1000 to 10000 µM | 1470 µM | – | – | – | – | – | 1620 µM | 1620 µM | [Ca+2].[Cl-].[Cl-] [Ca^2+, CaCl2]
